Where only a bound is given, the exact number is not on record here.

Assay [1] concerns GM-CSF induced STAT5 phosphorylation mediated by the JAK2/JAK2 homdimeric complex. As to the kind of experiment: GM-CSF Induced pSTAT5 in Human PBMC. Particulars: Homo sapiens, PBMC, 20 min, read-out: PBMC_GMCSF_pSTAT5 IC50, human PBMC; GM-CSF 5 ng/mL for 20 minutes; pSTAT5.
Source text: Human PBMC are isolated from buffy coat and are stored frozen for assays as needed.
The subject of assay [2] is IL-12 induced STAT4 phophorylation mediated by Tyk2/JAK2 (heterodimeric complex). Nature of the assay: IL-12 Induced pSTAT4 in Human PBMC. The assay is classed as cell-based. Conditions: 1.7 ng/mL IL-12. From the text:
The IL-12 Induced pSTAT4 assay evaluates the inhibition of IL-12 induced STAT4 phophorylation mediated by Tyk2/JAK2 (heterodimeric complex).

For `CNc1cc(Nc2cccn(-c3nc(C)co3)c2=O)nc2c(C(=O)N[C@@H]3CC[C@H]3O)cnn12` (stereo in doubt) [I-658, N-((1R,2R)-2-hydroxycyclobutyl)-7-(methylamino)-5-((1-(4-methyloxazol-2-yl)-2-oxo-1,2-dihydropyridin-3-yl)amino)pyrazolo[1,5-a]pyrimidine-3-carboxamide], the results for the IC50 in assay [1] and in assay [2] were above 50000 nM and below 100 nM, respectively.

As to `CNc1cc(Nc2cccn(-c3ccccn3)c2=O)nc2c(C(=O)N[C@H]3C[C@H]3F)cnn12` [I-681], the figures for the IC50 in assay [1] and in assay [2] were above 12500 nM and below 100 nM, respectively.

Take `CNc1cc(Nc2cccn(-c3cnn(C)c3)c2=O)nc2c(C(=O)N[C@H]3C[C@H]3F)cnn12` [I-296]: the IC50 in assay [1] is above 50000 nM; in assay [2], below 100 nM.

As to `CNc1cc(Nc2cccnc2OC(C)C)nc2c(C(=O)N[C@H]3C[C@H]3F)cnn12` [I-147], the IC50 in assay [1] was above 50000 nM; in assay [2] it was below 100 nM.

Turning to `CNc1cc(Nc2cccn3ccnc23)nc2c(C(=O)N[C@@H]3C[C@@H]3F)cnn12` [I-892], the IC50 in assay [1] was above 12500 nM; in assay [2], below 100 nM.

For the molecule `CNc1cc(Nc2cccnc2OC2CC2)nc2c(C(=O)N[C@H]3C[C@H]3F)cnn12` [I-217], the IC50 in assay [1] was above 50000 nM; in assay [2] it was below 100 nM.

Turning to `CNc1cc(Nc2cccn(-c3cnc(C(=O)N(C)C)cn3)c2=O)nc2c(C(=O)NC3CC3)cnn12` [I-127, N-cyclopropyl-5-((1-(5-(dimethylcarbamoyl)pyrazin-2-yl)-2-oxo-1,2-dihydropyridin-3-yl)amino)-7-(methylamino)pyrazolo[1,5-a]pyrimidine-3-carboxamide], the IC50 was above 12500 nM in assay [1] and below 100 nM in assay [2].

`CNc1cc(Nc2cc(Cl)cn(C3CCCN(C)C3)c2=O)nc2c(C(=O)N[C@@H]3C[C@@H]3F)cnn12` (stereo partly shown) [I-759]: the results for the IC50 in assay [1] and in assay [2] were above 50000 nM and below 100 nM, respectively.

Turning to `CNc1cc(Nc2cccn(-c3cccc(F)c3)c2=O)nc2c(C(=O)N[C@@H]3CC[C@H]3O)cnn12` [I-946], the IC50 in assay [1] is above 50000 nM; in assay [2] it was below 100 nM.

Consider `CNc1cc(Nc2cccnc2OC)nc2c(C(=O)NC3CCC3O)cnn12` (stereo not shown) [I-390, N-(2-hydroxycyclobutyl)-5-((2-methoxypyridin-3-yl)amino)-7-(methylamino) pyrazolo[1,5-a]pyrimidine-3-carboxamide], for which the IC50 is above 50000 nM in assay [1] and below 100 nM in assay [2].

With `CNc1cc(Nc2cccn(C3CCCCC3)c2=O)nc2c(C(=O)N[C@@H]3CC[C@@H]3O)cnn12` [I-1000], the IC50 was above 50000 nM in assay [1] and below 100 nM in assay [2].

In the case of `CNc1cc(Nc2cccn(-c3ccc(C)nn3)c2=O)nc2c(C(=O)NC3CCC3)cnn12` [I-141], the IC50 in assay [1] was above 50000 nM; in assay [2] it was below 100 nM.

On to `CNc1cc(Nc2cccn(-c3cccc(C(C)(C)O)n3)c2=O)nc2c(C(=O)N[C@H]3C[C@H]3F)cnn12` [I-123], for which the IC50 in assay [1] is above 50000 nM; in assay [2], below 100 nM.

Consider `CNc1cc(Nc2cccn(C3CCN(CCF)CC3)c2=O)nc2c(C(=O)NCC(C)(C)CO)cnn12` [I-847], for which the IC50 is above 50000 nM in assay [1] and 100 to 500 nM in assay [2].

Regarding `CNc1cc(Nc2cccn(-c3ccc(C4CC4)nn3)c2=O)nc2c(C(=O)N[C@H]3C[C@H]3F)cnn12` [I-165], the IC50 was above 2500 nM in assay [1] and below 100 nM in assay [2].

As for `CNc1cc(Nc2cccn(-c3cc(C)on3)c2=O)nc2c(C(=O)NC3CC3)cnn12` [I-162], the IC50 in assay [1] is above 2500 nM; in assay [2], below 100 nM.

As for `CNc1cc(Nc2cc(Cl)cn(-c3cnn(C)c3)c2=O)nc2c(C(=O)N[C@H]3C[C@H]3F)cnn12` [I-312], the figures for the IC50 in assay [1] and in assay [2] were above 12500 nM and below 100 nM, respectively.

For `CNc1cc(Nc2cccn([C@H]3CC[C@H](OC)CC3)c2=O)nc2c(C(=O)N[C@H]3CC[C@@H]3O)cnn12` [I-540], the IC50 in assay [1] is above 12500 nM; in assay [2], below 100 nM.

Turning to `CNc1cc(Nc2cc(C)cnc2OCCOC)nc2c(C(=O)NC3CCC3)cnn12` [I-282], the IC50 in assay [1] was above 2500 nM; in assay [2], 100 to 500 nM.

Consider `CNc1cc(Nc2cc(Cl)cn(-c3cnn(C)c3)c2=O)nc2c(C(=O)NC3CC3)cnn12` [I-311], for which the IC50 in assay [1] was above 12500 nM; in assay [2] it was below 100 nM.

On to `CNC(=O)c1nscc1Nc1cc(NC)n2ncc(C(=O)N[C@@H]3C[C@@H]3F)c2n1` [I-914], for which the values for the IC50 in assay [1] and in assay [2] were above 50000 nM and below 100 nM, respectively.

For `CNc1cc(Nc2cc(C)cn(-c3cnn(C)c3)c2=O)nc2c(C(=O)N[C@H]3C[C@H]3F)cnn12` [I-235], the IC50 was above 2500 nM in assay [1] and below 100 nM in assay [2].

For the molecule `CNc1cc(Nc2cccnc2OC)nc2c(C(=O)N[C@H]3C[C@@H]3O)cnn12` [I-438, N-((1S,2S)-2-hydroxycyclopropyl)-5-((2-methoxypyridin-3-yl)amino)-7-(methylamino)pyrazolo[1,5-a]pyrimidine-3-carboxamide], the IC50 is above 50000 nM in assay [1] and below 100 nM in assay [2].

With `CNc1cc(Nc2cccc([C@@H]3CCCOC3)n2)nc2c(C(=O)N[C@@H]3CC[C@H]3O)cnn12` [I-665], the results for the IC50 in assay [1] and in assay [2] were above 2500 nM and below 100 nM, respectively.

For `CNc1cc(Nc2cccnc2OC2CC2)nc2c(C(=O)NC3CCC3)cnn12` [I-216], the IC50 in assay [1] was above 12500 nM; in assay [2] it was below 100 nM.

Turning to `CNc1cc(-c2cn(C(C)C)c3ncccc23)nc2c(C(=O)N[C@@H]3COC[C@@H]3O)cnn12` [I-842, N-((3R,4R)-4-hydroxytetrahydrofuran-3-yl)-5-(1-isopropyl-1H-pyrrolo[2,3-b]pyridin-3-yl)-7-(methylamino)pyrazolo[1,5-a]pyrimidine-3-carboxamide], the half-maximal inhibitory concentration (IC50) is above 50000 nM in assay [1] and below 100 nM in assay [2].

Take `CNc1cc(Nc2cc(Cl)cn(C3CCCOC3)c2=O)nc2c(C(=O)NC3CC3)cnn12` (stereo not shown) [I-711]: the IC50 in assay [1] was above 50000 nM; in assay [2] it was below 100 nM.

Regarding `CNc1cc(Nc2cccn(-c3cn(C)nc3F)c2=O)nc2c(C(=O)NC3CC3)cnn12` [I-606], the IC50 in assay [1] was above 12500 nM; in assay [2] it was 100 to 500 nM.

Take `COc1ncccc1Nc1cc(NCCCN2CCOCC2)n2ncc(C(=O)N[C@@H]3C[C@@H]3F)c2n1` (stereo in doubt) [I-377, N-((1R,2S)-2-fluorocyclopropyl)-5-((2-methoxypyridin-3-yl)amino)-7-((3-morpholinopropyl)amino)pyrazolo[1,5-a]pyrimidine-3-carboxamide]: the IC50 in assay [1] is above 50000 nM; in assay [2] it was 100 to 500 nM.

Turning to `CNc1cc(Nc2cc(Cl)cn(C3CCN(C)CC3)c2=O)nc2c(C(=O)NC3CC3)cnn12` [I-883], the results for the IC50 in assay [1] and in assay [2] were above 12500 nM and below 100 nM, respectively.

For `CNc1cc(Nc2cc(C)cn(-c3cnn(C)c3)c2=O)nc2c(C(=O)NC3CC3)cnn12` [I-233], the IC50 in assay [1] is above 50000 nM; in assay [2] it was below 100 nM.

Turning to `CNc1cc(Nc2cccc(-c3cnn(C)c3)c2Cl)nc2c(C(N)=O)cnn12` [I-17], the IC50 in assay [1] is above 2500 nM; in assay [2], below 100 nM.

The record behind these values is US10577373B2, “TYK2 inhibitors and uses thereof” (Nimbus Lakshmi, Inc., priority 2017, dated 2020).
